# In patent US12077503B2, “Substituted cyclic amides and their use as herbicides” (FMC CORPORATION, priority 2015, dated 2024):
# Experiments:
# Experiment in all cases: Test C preemergence
# Assay type in all cases: in vivo
# [1] = test system: blackgrass (Alopecurus myosuroides); conditions: for Plant response rating, Blackgrass: scale 0 to 100, 0 no effect, 100 complete control
# How it was run: (§1)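 Visual 0 (no effect) to 100 (complete control) ratings versus controls, taken 13–15 d after treatment in the greenhouse; dash means no result. Compounds in a surfactant-containing non-phytotoxic solvent blend were applied preemergence to seeds in loam-sand soil or postemergence to 1- to 4-leaf plants (2–18 cm) in peat-based medium.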
# [2] = test system: pigweed (Amaranthus retroflexus); conditions: for Plant response rating, Pigweed: scale 0 to 100, 0 no effect, 100 complete control
# How it was run: as §1
# [3] = test system: waterhemp (common waterhemp, Amaranthus rudis); conditions: for Plant response rating, Waterhemp: scale 0 to 100, 0 no effect, 100 complete control
# How it was run: as §1
# [4] = test system: soybean (Glycine max); conditions: for Plant response rating, Soybean: scale 0 to 100, 0 no effect, 100 complete control
# How it was run: as §1
# [5] = test system: crabgrass, large (large crabgrass, Digitaria sanguinalis); conditions: for Plant response rating, Crabgrass, Large: scale 0 to 100, 0 no effect, 100 complete control
# How it was run: as §1
# [6] = test system: ragweed (common ragweed, Ambrosia elatior); conditions: for Plant response rating, Ragweed: scale 0 to 100, 0 no effect, 100 complete control
# How it was run: as §1
# [7] = test system: Galium (catchweed bedstraw, Galium aparine); conditions: for Plant response rating, Galium: scale 0 to 100, 0 no effect, 100 complete control
# How it was run: as §1
# [8] = test system: nutsedge, yellow (yellow nutsedge, Cyperus esculentus); conditions: for Plant response rating, Nutsedge, Yellow: scale 0 to 100, 0 no effect, 100 complete control
# How it was run: as §1
# [9] = test system: wheat (winter wheat, Triticum aestivum); conditions: for Plant response rating, Wheat: scale 0 to 100, 0 no effect, 100 complete control
# How it was run: as §1
# [10] = test system: velvetleaf (Abutilon theophrasti); conditions: for Plant response rating, Velvetleaf: scale 0 to 100, 0 no effect, 100 complete control
# How it was run: as §1
# [11] = test system: barnyardgrass (Echinochloa crus-galli); conditions: for Plant response rating, Barnyardgrass: scale 0 to 100, 0 no effect, 100 complete control
# How it was run: as §1
# [12] = test system: ryegrass, Italian (Italian ryegrass, Lolium multiflorum); conditions: for Plant response rating, Ryegrass, Italian: scale 0 to 100, 0 no effect, 100 complete control
# How it was run: as §1
# [13] = test system: morningglory (Ipomoea coccinea); conditions: for Plant response rating, Morningglory: scale 0 to 100, 0 no effect, 100 complete control
# How it was run: as §1
# [14] = test system: johnsongrass (Sorghum halepense); conditions: for Plant response rating, Johnsongrass: scale 0 to 100, 0 no effect, 100 complete control
# How it was run: as §1
# [15] = test system: corn (Zea mays); conditions: for Plant response rating, Corn: scale 0 to 100, 0 no effect, 100 complete control
# How it was run: as §1
# [16] = test system: lambsquarters (Chenopodium album); conditions: for Plant response rating, Lambsquarters: scale 0 to 100, 0 no effect, 100 complete control
# How it was run: as §1
# [17] = test system: foxtail, giant (giant foxtail, Setaria faberii); conditions: for Plant response rating, Foxtail, Giant: scale 0 to 100, 0 no effect, 100 complete control
# How it was run: as §1
# [18] = test system: oilseed rape (Brassica napus); conditions: for Plant response rating, Oilseed Rape: scale 0 to 100, 0 no effect, 100 complete control
# How it was run: as §1
# [19] = 31 g ai/ha, 0 is no effect, 100 is complete control
smiles,measurement,setting,value
CN1CC(c2ccc(F)c(F)c2)C(C(=O)Nc2ccccc2S(C)(=O)=O)C1=O (stereo not drawn) [Compound 640],"Plant response rating (scale of 0 to 100), Blackgrass",[1]; [19],0
same,"Plant response rating, Blackgrass",[1]; 62 g ai/ha,0
same,"Plant response rating, Blackgrass",[1]; 125 g ai/ha,20
same,"Plant response rating, Blackgrass",[1]; 250 g ai/ha,50
same,"Plant response rating (scale of 0 to 100), Pigweed",[2]; [19],40
same,"Plant response rating, Pigweed",[2]; 62 g ai/ha,50
same,"Plant response rating, Pigweed",[2]; 125 g ai/ha,70
same,"Plant response rating, Pigweed",[2]; 250 g ai/ha,80
same,"Plant response rating (scale of 0 to 100), Waterhemp",[3]; [19],55
same,"Plant response rating, Waterhemp",[3]; 62 g ai/ha,75
same,"Plant response rating, Waterhemp",[3]; 125 g ai/ha,70
same,"Plant response rating, Waterhemp",[3]; 250 g ai/ha,85
same,"Plant response rating (scale of 0 to 100), Soybean",[4]; [19],0
same,"Plant response rating, Soybean",[4]; 62 g ai/ha,0
same,"Plant response rating, Soybean",[4]; 125 g ai/ha,0
same,"Plant response rating, Soybean",[4]; 250 g ai/ha,0
same,"Plant response rating (scale of 0 to 100), Crabgrass, Large",[5]; [19],95
same,"Plant response rating, Crabgrass, Large",[5]; 62 g ai/ha,100
same,"Plant response rating, Crabgrass, Large",[5]; 125 g ai/ha,98
same,"Plant response rating, Crabgrass, Large",[5]; 250 g ai/ha,100
same,"Plant response rating (scale of 0 to 100), Ragweed",[6]; [19],0
same,"Plant response rating, Ragweed",[6]; 62 g ai/ha,40
same,"Plant response rating, Ragweed",[6]; 125 g ai/ha,70
same,"Plant response rating, Ragweed",[6]; 250 g ai/ha,85
same,"Plant response rating (scale of 0 to 100), Galium",[7]; [19],98
same,"Plant response rating, Galium",[7]; 62 g ai/ha,80
same,"Plant response rating, Galium",[7]; 125 g ai/ha,85
same,"Plant response rating, Galium",[7]; 250 g ai/ha,90
same,"Plant response rating (scale of 0 to 100), Nutsedge, Yellow",[8]; [19],0
same,"Plant response rating, Nutsedge, Yellow",[8]; 62 g ai/ha,0
same,"Plant response rating, Nutsedge, Yellow",[8]; 125 g ai/ha,0
same,"Plant response rating, Nutsedge, Yellow",[8]; 250 g ai/ha,0
same,"Plant response rating (scale of 0 to 100), Wheat",[9]; [19],0
same,"Plant response rating, Wheat",[9]; 62 g ai/ha,20
same,"Plant response rating, Wheat",[9]; 125 g ai/ha,45
same,"Plant response rating, Wheat",[9]; 250 g ai/ha,60
same,"Plant response rating (scale of 0 to 100), Velvetleaf",[10]; [19],0
same,"Plant response rating, Velvetleaf",[10]; 62 g ai/ha,0
same,"Plant response rating, Velvetleaf",[10]; 125 g ai/ha,10
same,"Plant response rating, Velvetleaf",[10]; 250 g ai/ha,40
same,"Plant response rating (scale of 0 to 100), Barnyardgrass",[11]; [19],80
same,"Plant response rating, Barnyardgrass",[11]; 62 g ai/ha,90
same,"Plant response rating, Barnyardgrass",[11]; 125 g ai/ha,90
same,"Plant response rating, Barnyardgrass",[11]; 250 g ai/ha,95
same,"Plant response rating (scale of 0 to 100), Ryegrass, Italian",[12]; [19],0
same,"Plant response rating, Ryegrass, Italian",[12]; 62 g ai/ha,5
same,"Plant response rating, Ryegrass, Italian",[12]; 125 g ai/ha,5
same,"Plant response rating, Ryegrass, Italian",[12]; 250 g ai/ha,40
same,"Plant response rating (scale of 0 to 100), Morningglory",[13]; [19],0
same,"Plant response rating, Morningglory",[13]; 62 g ai/ha,0
same,"Plant response rating, Morningglory",[13]; 125 g ai/ha,0
same,"Plant response rating, Morningglory",[13]; 250 g ai/ha,0
same,"Plant response rating (scale of 0 to 100), Johnsongrass",[14]; [19],0
same,"Plant response rating, Johnsongrass",[14]; 62 g ai/ha,0
same,"Plant response rating, Johnsongrass",[14]; 125 g ai/ha,0
same,"Plant response rating, Johnsongrass",[14]; 250 g ai/ha,40
same,"Plant response rating (scale of 0 to 100), Corn",[15]; [19],0
same,"Plant response rating, Corn",[15]; 62 g ai/ha,0
same,"Plant response rating, Corn",[15]; 125 g ai/ha,0
same,"Plant response rating, Corn",[15]; 250 g ai/ha,0
same,"Plant response rating (scale of 0 to 100), Lambsquarters",[16]; [19],25
same,"Plant response rating, Lambsquarters",[16]; 62 g ai/ha,35
same,"Plant response rating, Lambsquarters",[16]; 125 g ai/ha,50
same,"Plant response rating, Lambsquarters",[16]; 250 g ai/ha,70
same,"Plant response rating (scale of 0 to 100), Foxtail, Giant",[17]; [19],85
same,"Plant response rating, Foxtail, Giant",[17]; 62 g ai/ha,95
same,"Plant response rating, Foxtail, Giant",[17]; 125 g ai/ha,95
same,"Plant response rating, Foxtail, Giant",[17]; 250 g ai/ha,95
same,"Plant response rating (scale of 0 to 100), Oilseed Rape",[18]; [19],0
same,"Plant response rating, Oilseed Rape",[18]; 62 g ai/ha,0
same,"Plant response rating, Oilseed Rape",[18]; 125 g ai/ha,5
same,"Plant response rating, Oilseed Rape",[18]; 250 g ai/ha,80
